Results on six compounds are retold here after patent EP3130590A1, “AROMATIC AZA COMPOUNDS AS VR1/TRPV1 LIGANDS” (Grünenthal GmbH, priority 2015, dated 2017).

The target of this assay is T1, vanilloid receptor 1 (VR1/TRPV1 receptor) (Homo sapiens, UniProt Q8NER1).
T1 construct: expressed in transfected cells; host or cells: CHO K1
In words: Functional testing on the vanilloid receptor 1 (FLIPR Ca2+ influx assay, capsaicin stimulation). Format: cell-based. Particulars: capsaicin (CAP) 100 nM; for inhibition at 1 µM: @ 1 µM test compound; for inhibition at 1 µM / inhibition at 5 µM: relative to maximum achievable inhibition with 10 µM capsazepine, read-out: inhibition (in %), column (f) Ki human [nM] CAP; for inhibition at 5 µM: @ 5 µM test compound. On the procedure:
Furthermore, preference may be given to compounds according to the invention that cause a 50 per cent displacement of capsaicin, which is present at a concentration of 100 nM, in a FLIPR assay with CHO K1 cells which were transfected with the human VR1 gene at a concentration of less than 6,000 nM, preferably less than 5,000 nM, more preferably less that 3,000 nM or less than 1,000 nM and particularly preferably less than 300 nM, most particularly preferably less than 100 nM, even more preferably less than 75 nM, additionally preferably less than 50 nM, most preferably less than 10 nM.
In the process, the Ca^2+ influx is quantified in the FLIPR assay with the aid of a Ca^2+-sensitive dye (type Fluo-4, Molecular Probes Europe BV, Leiden, the Netherlands) in a fluorescent imaging plate reader (FLIPR, Molecular Devices, Sunnyvale, USA), as described hereinafter. […]
The FLIPR protocol consists of 2 substance additions. First the compounds to be tested (10 µM) are pipetted onto the cells and the Ca^2+ influx is compared with the control (capsaicin 10 µM). This provides the result in % activation based on the Ca^2+ signal after the addition of 10 µM of capsaicin (CP). After 5 min incubation, 100 nM of capsaicin are applied and the Ca^2+ influx is also determined. Desensitising agonists and antagonists lead to suppression of the Ca^2+ influx. The % inhibition is calculated compared to the maximum achievable inhibition with 10 µM of capsazepine.
Triple analyses (n=3) are carried out and repeated in at least 3 independent experiments (N=4). Starting from the percentage displacement caused by different concentrations of the compounds to be tested of general formula I, IC50 inhibitory concentrations which cause a 50% displacement of capsaicin were calculated.
Ki values for the test substances were obtained by conversion by means of the Cheng-Prusoff equation (Cheng, Prusoff; Biochem. Pharmacol. 22, 3099-3108, 1973).
The affinity of selected compounds according to the invention for the vanilloid receptor 1 (VR1/TRPV1 receptor) was determined as described hereinbefore.
The value after the "@"symbol indicates the concentration at which the indicated inhibition (in %) was respectively determined.

[1] abbreviates: functional (f), Ki from IC50 by Cheng-Prusoff equation, "ne" = did not show any effect in this assay.

T1 sequence (Q8NER1 whole entry): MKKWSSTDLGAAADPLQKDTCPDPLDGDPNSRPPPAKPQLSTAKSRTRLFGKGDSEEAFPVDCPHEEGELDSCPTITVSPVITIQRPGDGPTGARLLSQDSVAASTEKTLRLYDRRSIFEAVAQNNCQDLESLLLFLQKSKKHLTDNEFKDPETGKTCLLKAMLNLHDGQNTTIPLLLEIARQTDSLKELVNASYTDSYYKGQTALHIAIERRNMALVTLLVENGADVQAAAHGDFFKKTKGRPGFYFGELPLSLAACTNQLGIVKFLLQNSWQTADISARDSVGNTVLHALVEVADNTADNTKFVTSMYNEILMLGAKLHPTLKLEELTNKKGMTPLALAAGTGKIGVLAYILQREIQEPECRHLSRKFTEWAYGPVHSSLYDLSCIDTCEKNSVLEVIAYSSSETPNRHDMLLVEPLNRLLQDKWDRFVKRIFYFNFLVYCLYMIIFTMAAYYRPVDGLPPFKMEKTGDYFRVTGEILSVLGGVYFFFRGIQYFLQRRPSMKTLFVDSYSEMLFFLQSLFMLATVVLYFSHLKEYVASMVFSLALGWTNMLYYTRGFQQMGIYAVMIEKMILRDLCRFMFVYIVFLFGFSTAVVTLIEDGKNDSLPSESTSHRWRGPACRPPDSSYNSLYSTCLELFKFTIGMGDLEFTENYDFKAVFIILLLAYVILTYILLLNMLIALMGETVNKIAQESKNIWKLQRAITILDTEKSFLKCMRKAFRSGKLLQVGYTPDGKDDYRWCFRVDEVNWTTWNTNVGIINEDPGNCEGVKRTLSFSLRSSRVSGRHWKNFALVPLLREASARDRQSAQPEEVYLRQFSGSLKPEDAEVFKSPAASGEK

Broadly, the Ki is the dissociation constant of the complex between target and ligand, obtained from inhibition or displacement. A high value points to weaker binding. As to `CC1CCN(c2nc(C(F)(F)F)ccc2CNC(=O)C(C)C2CCCc3ccc(O)cc32)CC1` (stereo not drawn) [comp. no. 6, 2-(7-hydroxy-1,2,3,4-tetrahydronaphthalen-1-yl)-N-((2-(4-methylpiperidin-1-yl)-6-(trifluoromethyl)pyridin-3-yl)methyl)propanamide], the affinity under setting [1], expressed as Ki, was 28.6 nM. For `CC1CCN(c2nc(C(F)(F)F)ccc2CNC(=O)NC2CCc3ccccc32)CC1` (stereo not drawn) [compound 1, 1-(2,3-dihydro-1H-inden-1-yl)-3-((2-(4-methylpiperidin-1-yl)-6-(trifluoromethyl)pyridin-3-yl)methyl)urea], the “(f) Ki human [nM] CAP” value under setting [1] is given as “ne”. The inhibition is how much of the control response was suppressed. Take `CC1CCN(c2nc(C(F)(F)F)ccc2CNC(=O)NC2CCCc3ccccc32)CC1` (stereo not drawn) [compound 2, 1-((2-(4-methylpiperidin-1-yl)-6-(trifluoromethyl)pyridin-3-yl)methyl)-3-(1,2,3,4-tetrahydronaphthalen-1-yl)urea]: the inhibition at 1 µM came to 0% and the inhibition at 5 µM amounted to 36%. Taken in the same sequence, the figures for `CC1CCN(c2nc(C(F)(F)F)ccc2CNC(=O)NC2Cc3ccccc3C2)CC1` [compound 3, 1-(2,3-dihydro-1H-inden-2-yl)-3-((2-(4-methylpiperidin-1-yl)-6-(trifluoromethyl)pyridin-3-yl)methyl)urea] were 0% and 89%. In turn, `CC1CCN(c2nc(C(F)(F)F)ccc2CNC(=O)NC2CCCc3ccc(O)cc32)CC1` (stereo not drawn) [compound 4, 1-(7-hydroxy-1,2,3,4-tetrahydronaphthalen-1-yl)-3-((2-(4-methylpiperidin-1-yl)-6-(trifluoromethyl)pyridin-3-yl)methyl)urea] returned a Ki under setting [1] of 6.1 nM. Take `CC1CCN(c2nc(C(F)(F)F)ccc2CNC(=O)NC2CCCc3c2cnn3C)CC1` (stereo not drawn) [compound 5, 1-(1-methyl-4,5,6,7-tetrahydro-1H-indazol-4-yl)-3-((2-(4-methylpiperidin-1-yl)-6-(trifluoromethyl)pyridin-3-yl)methyl)urea]: the inhibition at 1 µM was found to be 0% and the inhibition at 5 µM came to 27%.
